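Results reflect a 48-hour exposure of cells in 96-well plates to compound at five concentrations. GI50: concentration for 50% inhibition of growth. TGI: concentration producing complete growth inhibition.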
What was measured:
Experiment in all cases: growth of human tumour cells (NCI), 48 h
786-0 renal = test system: 786-0 renal
A498 renal = test system: A498 renal
A549 NSCLC = test system: A549 NSCLC
ACHN renal = test system: ACHN renal
BT-549 breast = test system: BT-549 breast
CAKI-1 renal = test system: CAKI-1 renal
CCRF-CEM leukemia = test system: CCRF-CEM leukemia
COLO 205 colon = test system: COLO 205 colon
DU-145 prostate = test system: DU-145 prostate
EKVX NSCLC = test system: EKVX NSCLC
HCC-2998 colon = test system: HCC-2998 colon
HCT-116 colon = test system: HCT-116 colon
HCT-15 colon = test system: HCT-15 colon
HL-60(TB) leukemia = test system: HL-60(TB) leukemia
HOP-62 NSCLC = test system: HOP-62 NSCLC
HOP-92 NSCLC = test system: HOP-92 NSCLC
HS 578T breast = test system: HS 578T breast
HT29 colon = test system: HT29 colon
IGROV1 ovarian = test system: IGROV1 ovarian
K-562 leukemia = test system: K-562 leukemia
KM12 colon = test system: KM12 colon
LOX IMVI melanoma = test system: LOX IMVI melanoma
M14 melanoma = test system: M14 melanoma
MALME-3M melanoma = test system: MALME-3M melanoma
MCF7 breast = test system: MCF7 breast
MDA-MB-231 breast = test system: MDA-MB-231 breast
MDA-MB-435 = test system: MDA-MB-435
MOLT-4 leukemia = test system: MOLT-4 leukemia
NCI-H226 lung = test system: NCI-H226 lung
NCI-H460 lung = test system: NCI-H460 lung
NCI-H522 lung = test system: NCI-H522 lung
NCI/ADR-RES ovarian = test system: NCI/ADR-RES ovarian
OVCAR-3 ovarian = test system: OVCAR-3 ovarian
OVCAR-4 ovarian = test system: OVCAR-4 ovarian
OVCAR-5 ovarian = test system: OVCAR-5 ovarian
OVCAR-8 ovarian = test system: OVCAR-8 ovarian
PC-3 prostate = test system: PC-3 prostate
RPMI-8226 leukemia = test system: RPMI-8226 leukemia
RXF 393 renal = test system: RXF 393 renal
SF-268 CNS = test system: SF-268 CNS
SF-295 CNS = test system: SF-295 CNS
SF-539 CNS = test system: SF-539 CNS
SK-MEL-2 melanoma = test system: SK-MEL-2 melanoma
SK-MEL-28 melanoma = test system: SK-MEL-28 melanoma
SK-MEL-5 melanoma = test system: SK-MEL-5 melanoma
SK-OV-3 ovarian = test system: SK-OV-3 ovarian
SN12C renal = test system: SN12C renal
SNB-19 CNS = test system: SNB-19 CNS
SNB-75 CNS = test system: SNB-75 CNS
SW-620 colon = test system: SW-620 colon
T-47D breast = test system: T-47D breast
TK-10 renal = test system: TK-10 renal
U251 CNS = test system: U251 CNS
UACC-257 melanoma = test system: UACC-257 melanoma
UACC-62 melanoma = test system: UACC-62 melanoma
UO-31 renal = test system: UO-31 renal

O=C(CN1N=C(c2ccc(F)cc2)CCC1=O)Nc1nc2ccccc2s1
GI50 (786-0 renal): 0.235 µM | TGI (786-0 renal): 0.607 µM | GI50 (A498 renal): 22.8 µM | TGI (A498 renal): > 100 µM | GI50 (A549 NSCLC): 13.7 µM | TGI (A549 NSCLC): > 100 µM | GI50 (ACHN renal): 4.23 µM | TGI (ACHN renal): > 100 µM | GI50 (BT-549 breast): 4.81 µM | GI50 (CAKI-1 renal): 0.583 µM | TGI (CAKI-1 renal): 1.76 µM | GI50 (CCRF-CEM leukemia): 0.249 µM | TGI (CCRF-CEM leukemia): 0.665 µM | GI50 (COLO 205 colon): > 100 µM | TGI (COLO 205 colon): > 100 µM | GI50 (DU-145 prostate): > 25.6 µM | TGI (DU-145 prostate): > 100 µM | GI50 (EKVX NSCLC): 2.82 µM | TGI (EKVX NSCLC): > 100 µM | GI50 (HCC-2998 colon): > 100 µM | TGI (HCC-2998 colon): > 100 µM | GI50 (HCT-116 colon): 46.9 µM | TGI (HCT-116 colon): > 100 µM | GI50 (HCT-15 colon): 41.6 µM | TGI (HCT-15 colon): > 100 µM | GI50 (HL-60(TB) leukemia): 3.68 µM | TGI (HL-60(TB) leukemia): 19 µM | TGI (HOP-62 NSCLC): > 100 µM | GI50 (HOP-92 NSCLC): 1.31 µM | TGI (HOP-92 NSCLC): 2.84 µM | GI50 (HS 578T breast): 6.75 µM | TGI (HS 578T breast): 66 µM | GI50 (HT29 colon): 3.32 µM | TGI (HT29 colon): 11.5 µM | GI50 (IGROV1 ovarian): 0.165 µM | TGI (IGROV1 ovarian): 0.361 µM | GI50 (K-562 leukemia): 5.32 µM | TGI (K-562 leukemia): > 100 µM | GI50 (KM12 colon): > 25.9 µM | TGI (KM12 colon): > 100 µM | GI50 (LOX IMVI melanoma): 0.179 µM | TGI (LOX IMVI melanoma): 0.344 µM | GI50 (M14 melanoma): 33.2 µM | TGI (M14 melanoma): > 100 µM | GI50 (MALME-3M melanoma): 0.621 µM | TGI (MALME-3M melanoma): 1.56 µM | GI50 (MCF7 breast): 50.1 µM | TGI (MCF7 breast): > 100 µM | GI50 (MDA-MB-231 breast): 1.24 µM | TGI (MDA-MB-231 breast): 3.47 µM | GI50 (MDA-MB-435): > 73.5 µM | TGI (MDA-MB-435): > 100 µM | GI50 (MOLT-4 leukemia): 7.61 µM | TGI (MOLT-4 leukemia): 31.5 µM | GI50 (NCI-H226 lung): 69.7 µM | TGI (NCI-H226 lung): > 100 µM | GI50 (NCI-H460 lung): > 51.5 µM | TGI (NCI-H460 lung): > 100 µM | GI50 (NCI-H522 lung): 0.187 µM | TGI (NCI-H522 lung): 0.371 µM | GI50 (NCI/ADR-RES ovarian): > 28.2 µM | TGI (NCI/ADR-RES ovarian): > 100 µM | GI50 (OVCAR-3 ovarian): 1.99 µM | TGI (OVCAR-3 ovarian): 4.16 µM | GI50 (OVCAR-4 ovarian): 2.14 µM | GI50 (OVCAR-5 ovarian): 3.39 µM | TGI (OVCAR-5 ovarian): > 92.1 µM | GI50 (OVCAR-8 ovarian): 0.788 µM | TGI (OVCAR-8 ovarian): 4.33 µM | GI50 (PC-3 prostate): 9.82 µM | TGI (PC-3 prostate): > 100 µM | GI50 (RPMI-8226 leukemia): 2.29 µM | TGI (RPMI-8226 leukemia): 6.17 µM | GI50 (RXF 393 renal): 5.91 µM | TGI (RXF 393 renal): > 55.9 µM | GI50 (SF-268 CNS): 5.59 µM | TGI (SF-268 CNS): > 35.9 µM | GI50 (SF-295 CNS): > 100 µM | TGI (SF-295 CNS): > 100 µM | GI50 (SF-539 CNS): 1.7 µM | TGI (SF-539 CNS): 3.19 µM | GI50 (SK-MEL-2 melanoma): > 89.8 µM | TGI (SK-MEL-2 melanoma): > 100 µM | GI50 (SK-MEL-28 melanoma): > 100 µM | TGI (SK-MEL-28 melanoma): > 100 µM | GI50 (SK-MEL-5 melanoma): > 93.2 µM | TGI (SK-MEL-5 melanoma): > 100 µM | GI50 (SK-OV-3 ovarian): > 100 µM | TGI (SK-OV-3 ovarian): > 100 µM | GI50 (SN12C renal): 15.7 µM | TGI (SN12C renal): > 100 µM | GI50 (SNB-19 CNS): > 96.7 µM | TGI (SNB-19 CNS): > 100 µM | GI50 (SNB-75 CNS): 17.9 µM | TGI (SNB-75 CNS): > 100 µM | GI50 (SW-620 colon): > 49.5 µM | TGI (SW-620 colon): > 100 µM | GI50 (T-47D breast): > 100 µM | TGI (T-47D breast): > 100 µM | GI50 (TK-10 renal): > 100 µM | TGI (TK-10 renal): > 100 µM | GI50 (U251 CNS): 2.08 µM | TGI (U251 CNS): 4.69 µM | GI50 (UACC-257 melanoma): > 100 µM | TGI (UACC-257 melanoma): > 100 µM | GI50 (UACC-62 melanoma): 7.62 µM | TGI (UACC-62 melanoma): > 100 µM | GI50 (UO-31 renal): 0.182 µM | TGI (UO-31 renal): 0.405 µM
